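Dose response: 5 concentrations. Exposure: 48 h. Format: 96-well plates. Endpoint: linear interpolation; highest concentration if not reached. At the GI50, growth is halved.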 Activity calls are given as the source filed them. Rule as the data show it: active = GI50 up to about 1.1 µM and inactive = higher.

Some test systems named below: MDA-MB-231; ACHN; SF-539; RXF 393; MDA-MB-435; EKVX; M14; NCI-H23; TK-10; SW-620; A549; SNB-75; MOLT-4; SNB-19; CCRF-CEM; HCC 2998; RPMI-8226; NCI-H522; HL-60.
Common to all, as to test: NCI tumour cell line growth inhibition, 48 h

Turning to `CCN(CC)CCC(=O)c1ccc(Oc2ccc(F)cc2)cc1`, the GI50 in the assay on MDA-MB-231 is 17.1 µM (inactive); with ACHN, 18.4 µM (inactive); with SF-539, 17.3 µM (inactive); in the assay on RXF 393, 16.2 µM (inactive); in the assay with MDA-MB-435, 17.5 µM (inactive); in the assay with EKVX, 20.6 µM (inactive). Moreover, the GI50 was 18.3 µM (inactive) in the assay on M14; 20.6 µM (inactive) in the assay with NCI-H23; 17.5 µM (inactive) in the assay with TK-10; 18.4 µM (inactive) with SW-620; > 100 µM (inactive) in the assay with A549; 26.7 µM (inactive) in the assay on SNB-75. Moreover, the GI50 in the assay with MOLT-4 is 20.2 µM (inactive); in the assay with SNB-19, 18 µM (inactive); with CCRF-CEM, 20.6 µM (inactive); in the assay on HCC 2998 it was 20 µM (inactive); in the assay with RPMI-8226, 4.57 µM (inactive).
As for `CC(OC(=O)NCn1cc(-c2ccccc2)nn1)c1ccccc1` (centres undefined), the GI50 was 34.3 µM (inactive) with MDA-MB-231; 61.2 µM (inactive) with ACHN; 27.4 µM (inactive) in the assay with NCI-H522; 38.9 µM (inactive) in the assay on SF-539; 27.8 µM (inactive) with HL-60; 28.8 µM (inactive) with MDA-MB-435. Besides, the GI50 is 63.2 µM (inactive) in the assay with EKVX; 17.8 µM (inactive) in the assay with M14; 27.1 µM (inactive) in the assay on NCI-H23; 75.2 µM (inactive) with TK-10; 58.7 µM (inactive) in the assay on SW-620; 35.7 µM (inactive) in the assay with A549. Further, the GI50 in the assay on MOLT-4 was 20.8 µM (inactive); in the assay with SNB-19, > 100 µM (inactive); in the assay on CCRF-CEM, 31.6 µM (inactive); with HCC 2998, 39.2 µM (inactive); with RPMI-8226, 30.2 µM (inactive).
For `O=C1/C(=C/c2cccc(Br)c2)Cc2ccccc21`, the GI50 with MDA-MB-231 was 44.9 µM (inactive); with ACHN, > 100 µM (inactive); in the assay with NCI-H522, 96.4 µM (inactive); with SF-539, 41.8 µM (inactive); in the assay on HL-60 it was 68.7 µM (inactive); in the assay on MDA-MB-435, 80 µM (inactive). In addition, the GI50 was 27.7 µM (inactive) with EKVX; 67.3 µM (inactive) in the assay with M14; 25.9 µM (inactive) in the assay on NCI-H23; 63.5 µM (inactive) with TK-10; > 100 µM (inactive) in the assay with SW-620; 26.8 µM (inactive) in the assay with A549. In addition, the GI50 is > 100 µM (inactive) in the assay with SNB-75; 62.7 µM (inactive) in the assay with MOLT-4; 50.6 µM (inactive) in the assay on SNB-19; 58.7 µM (inactive) in the assay on CCRF-CEM; 32.8 µM (inactive) in the assay with RPMI-8226.
In the case of `COc1cc(/C=C/C(=O)OCCc2ccccc2)ccc1O`, the GI50 in the assay with MDA-MB-231 was 14.2 µM (inactive); in the assay with ACHN, 18.5 µM (inactive); with NCI-H522, 5.4 µM (inactive); in the assay on SF-539, 18.6 µM (inactive); in the assay with HL-60, 0.352 µM (active); in the assay on MDA-MB-435 it was 13.4 µM (inactive). For the same molecule, the GI50 with EKVX is 16.3 µM (inactive); in the assay on M14 it was 15 µM (inactive); in the assay on NCI-H23 it was 17.2 µM (inactive); in the assay on TK-10, 15.1 µM (inactive); with SW-620 it was 22.2 µM (inactive); in the assay on A549, 18.4 µM (inactive). The GI50 with SNB-75 is 15.2 µM (inactive); with MOLT-4, 14.5 µM (inactive); in the assay with SNB-19, 17.9 µM (inactive); in the assay on HCC 2998, 21 µM (inactive); with RPMI-8226 it was 20.5 µM (inactive).
For the molecule `Cc1nc(C(N)=S)sc1C(=O)C/C(=N/N)C(=O)Nc1ccc(Cl)cc1`, the GI50 in the assay with MDA-MB-231 is > 100 µM (inactive); in the assay on ACHN, 44.6 µM (inactive); with NCI-H522, 31 µM (inactive); with SF-539, > 100 µM (inactive); in the assay with RXF 393 it was > 100 µM (inactive); in the assay on MDA-MB-435, > 100 µM (inactive). The GI50 in the assay on EKVX is 52.8 µM (inactive); in the assay with M14, > 100 µM (inactive); in the assay with NCI-H23, 57.9 µM (inactive); in the assay on TK-10, > 100 µM (inactive); in the assay on SW-620 it was > 100 µM (inactive); with A549, > 100 µM (inactive). Also, the GI50 in the assay with SNB-75 is > 100 µM (inactive); in the assay with MOLT-4 it was 45.8 µM (inactive); in the assay with SNB-19, 72.4 µM (inactive); in the assay with HCC 2998, > 100 µM (inactive); in the assay with RPMI-8226 it was 38.2 µM (inactive).
Consider `CCOC(=O)c1nnsc1NN`, for which the GI50 in the assay with MDA-MB-231 was 53.8 µM (inactive); in the assay with ACHN it was > 100 µM (inactive); in the assay with NCI-H522, > 100 µM (inactive); in the assay on SF-539 it was > 100 µM (inactive); with RXF 393 it was > 100 µM (inactive); in the assay with HL-60, 10.5 µM (inactive). Moreover, the GI50 in the assay with MDA-MB-435 is > 100 µM (inactive); with EKVX it was > 100 µM (inactive); in the assay with M14 it was 90.6 µM (inactive); in the assay on NCI-H23, > 100 µM (inactive); in the assay on TK-10 it was > 100 µM (inactive); with SW-620, > 100 µM (inactive). For the same molecule, the GI50 in the assay on A549 is 62.5 µM (inactive); in the assay on SNB-75, > 100 µM (inactive); with MOLT-4 it was 34 µM (inactive); in the assay with SNB-19 it was > 100 µM (inactive); in the assay with CCRF-CEM, 18.8 µM (inactive); with HCC 2998 it was > 100 µM (inactive).
Take `CC(=O)c1c(CO[N+](=O)[O-])[n+]([O-])c2ccccc2[n+]1[O-]`: the GI50 is 53.7 µM (inactive) in the assay with MDA-MB-231; 61.1 µM (inactive) in the assay with ACHN; 31.8 µM (inactive) in the assay on NCI-H522; > 100 µM (inactive) with SF-539; 79.6 µM (inactive) in the assay with MDA-MB-435; > 100 µM (inactive) in the assay on EKVX. Further, the GI50 in the assay on M14 is 35.1 µM (inactive); with NCI-H23, 45.5 µM (inactive); in the assay with TK-10 it was > 100 µM (inactive); with SW-620, 63.7 µM (inactive); in the assay on A549, > 100 µM (inactive); in the assay on SNB-75, > 100 µM (inactive). In addition, the GI50 was 78.3 µM (inactive) in the assay with MOLT-4, > 100 µM (inactive) in the assay with SNB-19, 37.9 µM (inactive) in the assay on CCRF-CEM and 56.6 µM (inactive) with RPMI-8226.
Regarding `COc1ccc(/N=N/c2c(C)c(C#N)c(=S)n(C3OC(COC(C)=O)C(OC(C)=O)C(OC(C)=O)C3OC(C)=O)c2C)cc1` (centres undefined), the GI50 is 21.7 µM (inactive) in the assay with MDA-MB-231; > 100 µM (inactive) in the assay on ACHN; > 100 µM (inactive) in the assay with SF-539; 62.5 µM (inactive) with RXF 393; > 100 µM (inactive) in the assay with HL-60; > 10 µM (inactive) in the assay on MDA-MB-435. Moreover, the GI50 is 90.6 µM (inactive) in the assay on M14; > 100 µM (inactive) with NCI-H23; > 100 µM (inactive) in the assay on TK-10; > 100 µM (inactive) in the assay on SW-620; > 100 µM (inactive) in the assay on A549; 16.1 µM (inactive) in the assay on SNB-75. The GI50 in the assay on MOLT-4, in the assay with SNB-19, in the assay on CCRF-CEM, in the assay with HCC 2998 and in the assay on RPMI-8226 was > 100 µM (inactive) in each case.
Take `CCOc1ccc(/C=C2\N=C(c3ccccc3)OC2=O)cc1`: the GI50 in the assay with ACHN was > 100 µM (inactive); with NCI-H522, 48.5 µM (inactive); in the assay with SF-539 it was > 100 µM (inactive); in the assay with RXF 393, > 100 µM (inactive); in the assay on HL-60 it was > 100 µM (inactive); in the assay with MDA-MB-435 it was > 100 µM (inactive). The GI50 in the assay with EKVX, with M14, in the assay on NCI-H23, in the assay with TK-10, in the assay with SW-620 and in the assay on A549 was > 100 µM (inactive) in each case. The GI50 is 83 µM (inactive) in the assay on SNB-75; 8.71 µM (inactive) with MOLT-4; > 100 µM (inactive) with SNB-19; > 100 µM (inactive) with CCRF-CEM; > 100 µM (inactive) in the assay on HCC 2998; > 100 µM (inactive) in the assay with RPMI-8226.
With `COc1ccc(C2CC(=O)CC(c3ccc(OC)cc3)C23C(=O)NC(=S)NC3=O)cc1` (centres undefined), the GI50 in the assay on ACHN, in the assay with NCI-H522, in the assay on SF-539, in the assay on RXF 393, with HL-60 and in the assay on MDA-MB-435 was > 100 µM (inactive) throughout. Further, the GI50 in the assay with EKVX, with M14, in the assay on NCI-H23, with TK-10, in the assay on SW-620 and in the assay with SNB-75 was > 100 µM (inactive) throughout. Moreover, the GI50 with MOLT-4 was > 100 µM (inactive); in the assay with SNB-19, > 100 µM (inactive); with CCRF-CEM, > 100 µM (inactive); with HCC 2998, > 100 µM (inactive); in the assay with RPMI-8226, > 10 µM (inactive).
Turning to `COC(=O)[C@H](Cc1ccccc1)NC(=O)OCC1OC(n2cc(C)c(=O)[nH]c2=O)CC1N=[N+]=[N-]` (some centres undefined), the GI50 in the assay with MDA-MB-231 was > 100 µM (inactive); with ACHN it was 86.1 µM (inactive); in the assay with NCI-H522 it was > 100 µM (inactive); with RXF 393 it was > 100 µM (inactive); with HL-60, > 100 µM (inactive); in the assay with MDA-MB-435, > 100 µM (inactive). Further, the GI50 in the assay on EKVX, in the assay with M14, with NCI-H23, with TK-10, with SW-620 and with A549 was > 100 µM (inactive) throughout. Besides, the GI50 with SNB-75 was 78.3 µM (inactive); in the assay with MOLT-4, > 100 µM (inactive); with SNB-19, > 100 µM (inactive); in the assay with CCRF-CEM it was > 100 µM (inactive); with HCC 2998, > 100 µM (inactive); with RPMI-8226 it was > 100 µM (inactive).

Values taken from ChEMBL document CHEMBL1201862, “PubChem BioAssay data set” (2004).
